Reference: ChEMBL document CHEMBL3046061, “Quinolinedione nucleus as a novel scaffold for A1 and A2A adenosine receptor antagonists” (Med Chem Res, 2008)

Legend:
[1] = tested on: cAMP phosphodiesterase 3 (Cavia porcellus); assay: Inhibition of Cavia porcellus (guinea pig) PDE3 isolated from heart using [3H]cAMP as substrate at 100 uM by two-step method
Adenosine receptor A1 [2] = biological target: T1, Adenosine receptor A1 (Bos taurus, UniProt P28190); assay: Displacement of [3H]DPCPX from adenosine A1 receptor in Bos taurus (bovine) cortical membrane
T1 sequence (P28190 whole entry): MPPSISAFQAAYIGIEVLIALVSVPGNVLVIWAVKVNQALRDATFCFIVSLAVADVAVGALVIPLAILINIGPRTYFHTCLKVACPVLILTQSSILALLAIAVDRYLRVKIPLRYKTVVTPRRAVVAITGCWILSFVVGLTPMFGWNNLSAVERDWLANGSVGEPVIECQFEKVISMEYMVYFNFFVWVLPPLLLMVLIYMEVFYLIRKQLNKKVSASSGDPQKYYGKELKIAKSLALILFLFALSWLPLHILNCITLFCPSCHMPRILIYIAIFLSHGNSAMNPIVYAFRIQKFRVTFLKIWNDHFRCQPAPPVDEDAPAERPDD

[3] = biological target: Uncharacterized protein (Bos taurus) (UniProt E1BKU0); assay: Displacement of [3H]CGS21680 from adenosine A2A receptor in Bos taurus (bovine) cortical membrane at 10 uM
Chain of Uncharacterized protein (Bos taurus) (E1BKU0 as listed by the source): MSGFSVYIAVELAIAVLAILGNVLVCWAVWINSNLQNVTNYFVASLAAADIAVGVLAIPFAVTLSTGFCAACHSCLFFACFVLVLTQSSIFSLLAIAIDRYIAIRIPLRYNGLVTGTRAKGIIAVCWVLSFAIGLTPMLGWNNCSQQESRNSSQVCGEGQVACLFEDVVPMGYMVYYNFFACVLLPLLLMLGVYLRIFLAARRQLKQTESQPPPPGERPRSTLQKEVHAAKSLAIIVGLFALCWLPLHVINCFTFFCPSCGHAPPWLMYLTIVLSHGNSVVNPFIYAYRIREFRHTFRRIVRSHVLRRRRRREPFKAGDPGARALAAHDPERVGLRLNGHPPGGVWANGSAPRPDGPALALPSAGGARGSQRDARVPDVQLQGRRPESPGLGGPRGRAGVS

[4] = tested on: cAMP phosphodiesterase 3 (Cavia porcellus); assay: Inhibition of Cavia porcellus (guinea pig) PDE3 isolated from heart using [3H]cAMP as substrate at 50 uM by two-step method
[5] = biological target: T2, Adenosine receptor A1 (Homo sapiens) (UniProt P30542); assay: Displacement of [3H]DPCPX from Homo sapiens (human) adenosine A1 receptor expressed in CHO cells at 10 uM; format: cell-based
T2 sequence (whole entry): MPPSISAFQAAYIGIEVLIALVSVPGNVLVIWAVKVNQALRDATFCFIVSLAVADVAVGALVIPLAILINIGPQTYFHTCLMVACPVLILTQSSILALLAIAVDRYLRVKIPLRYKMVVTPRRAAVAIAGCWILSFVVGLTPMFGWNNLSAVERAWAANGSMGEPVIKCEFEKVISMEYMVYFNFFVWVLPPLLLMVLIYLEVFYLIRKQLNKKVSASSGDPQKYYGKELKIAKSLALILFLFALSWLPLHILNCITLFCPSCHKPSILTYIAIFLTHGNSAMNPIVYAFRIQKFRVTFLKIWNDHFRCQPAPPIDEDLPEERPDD

[6] = tested on: cAMP phosphodiesterase 3 (Cavia porcellus); assay: Inhibition of Cavia porcellus (guinea pig) PDE3 isolated from heart using [3H]cAMP as substrate at 10 uM by two-step method
[7] = tested on: cAMP phosphodiesterase 3 (Cavia porcellus); assay: Inhibition of Cavia porcellus (guinea pig) PDE3 isolated from heart using [3H]cAMP as substrate at 1 uM by two-step method
[8] = biological target: T3, Adenosine receptor A3 (Homo sapiens) (UniProt P0DMS8); assay: Displacement of [125I]AB-MECA from Homo sapiens (human) adenosine A3 receptor expressed in CHO cells at 10 uM; format: cell-based
T3 sequence (whole entry): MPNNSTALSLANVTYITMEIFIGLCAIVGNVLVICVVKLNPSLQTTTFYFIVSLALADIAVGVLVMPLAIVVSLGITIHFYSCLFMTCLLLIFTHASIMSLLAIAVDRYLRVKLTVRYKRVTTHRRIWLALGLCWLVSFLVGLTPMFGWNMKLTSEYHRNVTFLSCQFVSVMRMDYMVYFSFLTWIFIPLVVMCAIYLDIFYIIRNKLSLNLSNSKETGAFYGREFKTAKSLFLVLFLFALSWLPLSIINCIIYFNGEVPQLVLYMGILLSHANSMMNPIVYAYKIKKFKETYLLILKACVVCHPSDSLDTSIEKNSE

Adenosine receptor A2a [9] = biological target: T4, Adenosine receptor A2a (Homo sapiens, UniProt P29274); assay: Displacement of [3H]CGS21680 from Homo sapiens (human) adenosine A2A receptor expressed in CHO cells at 10 uM; format: cell-based
T4 sequence (P29274 whole entry): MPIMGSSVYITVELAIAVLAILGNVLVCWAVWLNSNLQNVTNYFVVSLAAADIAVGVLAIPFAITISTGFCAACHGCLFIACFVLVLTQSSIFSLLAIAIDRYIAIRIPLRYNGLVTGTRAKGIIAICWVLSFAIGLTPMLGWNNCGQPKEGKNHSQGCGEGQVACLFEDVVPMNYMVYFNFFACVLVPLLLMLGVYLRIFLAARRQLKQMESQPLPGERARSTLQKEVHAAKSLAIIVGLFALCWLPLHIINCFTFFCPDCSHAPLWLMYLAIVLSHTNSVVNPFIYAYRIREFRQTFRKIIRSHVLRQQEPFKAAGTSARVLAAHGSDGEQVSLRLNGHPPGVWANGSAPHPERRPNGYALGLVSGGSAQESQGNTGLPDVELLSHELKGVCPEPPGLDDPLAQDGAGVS

Uncharacterized protein = Uncharacterized protein (Bos taurus, UniProt E1BKU0); assay: Displacement of [3H]CGS21680 from adenosine A2A receptor in Bos taurus (bovine) cortical membrane
Chain of Uncharacterized protein (E1BKU0 whole entry): as the sequence (E1BKU0 as listed by the source) above

Adenosine receptor A2a [10] = biological target: T4, Adenosine receptor A2a; assay: Displacement of [3H]CGS21680 from Homo sapiens (human) adenosine A2A receptor expressed in CHO cells; format: cell-based
[11] = biological target: T5, Adenosine receptor A1 (Bos taurus) (UniProt P28190); assay: Displacement of [3H]DPCPX from adenosine A1 receptor in Bos taurus (bovine) cortical membrane at 10 uM
T5 sequence (whole entry): T1 sequence (P28190 whole entry)

Adenosine receptor A1 [12] = biological target: T6, Adenosine receptor A1 (Homo sapiens, UniProt P30542); assay: Displacement of [3H]DPCPX from Homo sapiens (human) adenosine A1 receptor expressed in CHO cells; format: cell-based
T6 sequence (P30542 whole entry): T2 sequence (whole entry)

Structure (SMILES) | inhibition [1] | Ki (Adenosine receptor A1 [2]) | inhibition [3] | inhibition [4] | inhibition [5] | inhibition [6] | inhibition [7] | inhibition [8] | inhibition (Adenosine receptor A2a [9]) | Ki (Uncharacterized protein) | Ki (Adenosine receptor A2a [10]) | inhibition [11] | Ki (Adenosine receptor A1 [12])
O=C1CC(c2ccccc2)Cc2[nH]c(=O)c(C(=O)c3ccccc3)cc21 (centres undefined) | 7.8% | 6.5 µM | 0% | 1.7% | 5% | 5.2% | 0% | 0% | 16% | – | – | – | –
O=C(c1ccccc1)c1cc(S(=O)(=O)c2ccccc2)c(=O)[nH]c1-c1ccccc1 | 7.53% | – | 8% | 3.5% | 1% | 0% | 0% | 0% | 11% | – | – | 8% | –
O=C1CC(c2ccccc2)Cc2[nH]c(=O)c(S(=O)(=O)c3ccccc3)cc21 (centres undefined) | 10.4% | 5.8 µM | – | 5.7% | – | 0% | 0% | 18% | – | 7.9 µM | 7 µM | – | 7.8 µM
O=C1CCCc2[nH]c(=O)c(S(=O)(=O)c3ccccc3)cc21 | 5.7% | – | 2% | 4.7% | 36% | 0% | 0% | 0% | – | – | – | 10% | –
O=C(c1ccccc1)c1cc(C(=O)c2ccccc2)c(=O)[nH]c1-c1ccccc1 | 9.6% | – | 8% | 5.4% | 2% | 1.76% | 0% | 2% | 13% | – | – | 13% | –
O=C1CCCc2[nH]c(=O)c(C(=O)c3ccccc3)cc21 | 6% | – | 4% | 4.3% | – | 0% | 0% | 0% | – | – | – | 6% | –

Further lines, results first:

inhibition [1] | Ki (Adenosine receptor A1 [2]) | inhibition [3] | inhibition [4] | inhibition [5] | inhibition [6] | inhibition [7] | inhibition [8] | inhibition (Adenosine receptor A2a [9]) | Ki (Uncharacterized protein) | Ki (Adenosine receptor A2a [10]) | inhibition [11] | Ki (Adenosine receptor A1 [12]) | Structure (SMILES)
4.2% | 5.1 µM | – | 3.3% | 11% | 0.8% | 0% | 21% | – | 15 µM | 16 µM | – | – | CC(C)(C)C(=O)c1cc2c([nH]c1=O)CC(c1ccccc1)CC2=O (centres undefined)
8.72% | – | 0% | 3.98% | – | 1.03% | 0% | 0% | – | – | – | 0% | – | CC(=O)c1cc(S(=O)(=O)c2ccccc2)c(=O)[nH]c1C
8.9% | – | 0% | 4.35% | – | 2% | 0% | 0% | – | – | – | 0% | – | CC(=O)c1cc(C(=O)c2ccccc2)c(=O)[nH]c1C
6.6% | – | 0% | 6.6% | 0% | 2.5% | 0% | 0% | – | – | – | 13% | – | CC(C)(C)C(=O)c1cc2c([nH]c1=O)CCCC2=O
8.23% | – | 11% | 2.15% | – | 1.15% | 0% | 13% | – | – | – | 0% | – | CC(=O)c1cc(C(=O)C(C)(C)C)c(=O)[nH]c1C
